Results taken from patent US12146183B2, “Compound and a method for identifying a protein using said compound” (CITY UNIVERSITY OF HONG KONG, priority 2020, dated 2024).

Experiments:
Format in all cases: biochemical
Sirt3 = molecular target: T1, Sirt3 (Homo sapiens, UniProt Q9NTG7); assay: Fluorimeter delipoylation assay of probe KTlip with Sirt3; conditions: Sirt3, 37° C., HEPES buffer pH 8.0
T1 construct: made in house
T1 sequence (Q9NTG7 1-399): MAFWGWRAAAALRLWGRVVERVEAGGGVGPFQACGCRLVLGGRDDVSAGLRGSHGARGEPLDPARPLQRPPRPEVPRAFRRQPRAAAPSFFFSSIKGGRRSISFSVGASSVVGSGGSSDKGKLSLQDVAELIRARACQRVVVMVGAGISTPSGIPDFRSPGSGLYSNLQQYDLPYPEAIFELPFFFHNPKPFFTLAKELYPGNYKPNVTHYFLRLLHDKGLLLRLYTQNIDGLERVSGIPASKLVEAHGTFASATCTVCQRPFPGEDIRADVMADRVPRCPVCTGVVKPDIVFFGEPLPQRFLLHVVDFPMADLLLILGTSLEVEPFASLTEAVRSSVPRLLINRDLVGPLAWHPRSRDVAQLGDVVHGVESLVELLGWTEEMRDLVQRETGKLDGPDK
Method: (§1) The capacity of HDACs to recognize and remove the lipoyl group of KTlip was examined by a fluorimeter assay. KTlip was incubated with various HDACs at 37° C. in HEPES buffer (pH 8.0). The fluorescence of the enzymatic reactions was then measured accordingly. […] Further HPLC and MS analysis confirmed that the molecular weight of the newly generated peak corresponded to the expected tandem de-lipoylated/exchanged product. […] After enzymatic reaction with Sirt2, a shift of peak absorption from 380 nm to 480 nm was clearly observed. Through detailed kinetic study, the first-order rate constant of the reaction was determined to be 0.013 min-1. The Km value of KTlip obtained from the fluorescent method matched well with that from the traditional HPLC method, underscoring that probe KTlip can serve as a useful tool for detecting enzymatic delipoylation activity.
(§2) The probe KTlip was incubated with sirtuin and NAD+ at 37° C. in 20 mM HEPES buffer (pH 8.0) containing 150 mM NaCl, 1 mM MgCl2, and 2.7 mM KCl. The enzymatic reaction volume was 50 μL. When the enzymatic reaction was complete, the reaction was applied for absorption and fluorescence measurement. The parameter set for absorbance measurement was as follows: UV-visible light, collection region: 300-550 nm. The parameter set for fluorescence measurements was as follows: λex=480 nm, slit width: 5 nm, collection region: 510-600 nm.

HDAC8 = molecular target: T2, HDAC8 (Homo sapiens, UniProt Q9BY41); assay: Fluorimeter and HPLC/MS delipoylation assay of probe KTlip with HDAC8
T2 sequence (Q9BY41 1-377): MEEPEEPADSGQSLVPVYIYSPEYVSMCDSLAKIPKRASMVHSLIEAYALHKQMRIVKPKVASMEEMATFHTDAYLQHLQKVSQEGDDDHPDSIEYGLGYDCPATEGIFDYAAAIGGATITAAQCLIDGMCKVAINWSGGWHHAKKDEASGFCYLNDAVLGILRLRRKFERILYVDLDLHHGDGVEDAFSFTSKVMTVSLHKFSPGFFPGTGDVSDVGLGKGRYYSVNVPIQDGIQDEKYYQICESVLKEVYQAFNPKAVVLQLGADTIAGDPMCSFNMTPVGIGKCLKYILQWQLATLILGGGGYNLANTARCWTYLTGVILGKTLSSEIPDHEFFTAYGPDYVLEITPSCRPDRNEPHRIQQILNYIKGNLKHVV
Method: as §1, §2

Sirt5 = molecular target: T3, Sirt5 (Homo sapiens, UniProt Q9NXA8); assay: Fluorimeter delipoylation assay of probe KTlip with Sirt5; conditions: Sirt5, 37° C., HEPES buffer pH 8.0
T3 construct: made in house
T3 sequence (Q9NXA8 37-310): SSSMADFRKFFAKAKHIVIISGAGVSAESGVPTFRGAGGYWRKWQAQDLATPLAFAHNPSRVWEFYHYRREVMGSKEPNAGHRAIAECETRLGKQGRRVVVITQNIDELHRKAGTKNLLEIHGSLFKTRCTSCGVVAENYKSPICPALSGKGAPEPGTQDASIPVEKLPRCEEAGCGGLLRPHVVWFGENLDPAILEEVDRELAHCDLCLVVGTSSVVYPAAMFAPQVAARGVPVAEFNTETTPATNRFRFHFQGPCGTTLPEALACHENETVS
Method: as §1, §2

Sirt6 = molecular target: T4, Sirt6 (Homo sapiens, UniProt Q8N6T7); assay: Fluorimeter delipoylation assay of probe KTlip with Sirt6; conditions: Sirt6, 37° C., HEPES buffer pH 8.0
T4 construct: made in house
T4 sequence (Q8N6T7 whole entry, species assumed): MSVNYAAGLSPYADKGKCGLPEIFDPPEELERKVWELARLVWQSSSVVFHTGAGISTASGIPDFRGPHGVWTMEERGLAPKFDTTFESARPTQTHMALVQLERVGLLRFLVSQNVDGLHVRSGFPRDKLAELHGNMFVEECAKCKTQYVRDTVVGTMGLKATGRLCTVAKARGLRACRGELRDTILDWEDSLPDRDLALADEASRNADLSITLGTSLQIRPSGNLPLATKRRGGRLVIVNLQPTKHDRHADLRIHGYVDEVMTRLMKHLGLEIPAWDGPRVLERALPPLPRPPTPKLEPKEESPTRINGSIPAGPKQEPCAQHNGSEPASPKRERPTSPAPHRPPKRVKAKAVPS
Method: as §1, §2

Sirt1 = molecular target: T5, Sirt1 (Homo sapiens, UniProt Q96EB6); assay: Fluorimeter delipoylation assay of probe KTlip with Sirt1; conditions: Sirt1, 37° C., HEPES buffer pH 8.0
T5 construct: made in house
T5 sequence (Q96EB6 1-747): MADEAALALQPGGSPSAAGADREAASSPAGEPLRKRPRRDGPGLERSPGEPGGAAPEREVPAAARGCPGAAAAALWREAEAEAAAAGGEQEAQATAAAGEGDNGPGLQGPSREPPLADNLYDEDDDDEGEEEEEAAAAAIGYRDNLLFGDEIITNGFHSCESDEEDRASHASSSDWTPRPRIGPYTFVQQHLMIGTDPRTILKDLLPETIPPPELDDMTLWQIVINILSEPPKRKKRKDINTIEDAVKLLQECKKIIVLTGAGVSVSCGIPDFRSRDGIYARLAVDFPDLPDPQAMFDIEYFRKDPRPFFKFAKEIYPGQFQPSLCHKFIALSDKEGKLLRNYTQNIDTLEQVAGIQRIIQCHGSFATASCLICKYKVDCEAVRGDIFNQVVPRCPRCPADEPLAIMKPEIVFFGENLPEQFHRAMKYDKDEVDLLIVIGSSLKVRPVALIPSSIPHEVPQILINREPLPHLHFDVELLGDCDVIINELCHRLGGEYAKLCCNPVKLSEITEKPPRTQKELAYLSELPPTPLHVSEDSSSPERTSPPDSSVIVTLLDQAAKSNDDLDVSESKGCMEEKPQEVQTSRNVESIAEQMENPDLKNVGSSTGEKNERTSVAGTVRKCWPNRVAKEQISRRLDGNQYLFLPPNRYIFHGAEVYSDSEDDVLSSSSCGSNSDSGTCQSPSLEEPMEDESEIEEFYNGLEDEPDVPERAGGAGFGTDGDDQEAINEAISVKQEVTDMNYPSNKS
Method: as §1, §2

Sirt2 [1] = molecular target: T6, Sirt2 (Homo sapiens, UniProt Q8IXJ6); assay: Fluorimeter delipoylation assay of probe KTlip with Sirt2
T6 construct: made in house
T6 sequence (Q8IXJ6 1-389): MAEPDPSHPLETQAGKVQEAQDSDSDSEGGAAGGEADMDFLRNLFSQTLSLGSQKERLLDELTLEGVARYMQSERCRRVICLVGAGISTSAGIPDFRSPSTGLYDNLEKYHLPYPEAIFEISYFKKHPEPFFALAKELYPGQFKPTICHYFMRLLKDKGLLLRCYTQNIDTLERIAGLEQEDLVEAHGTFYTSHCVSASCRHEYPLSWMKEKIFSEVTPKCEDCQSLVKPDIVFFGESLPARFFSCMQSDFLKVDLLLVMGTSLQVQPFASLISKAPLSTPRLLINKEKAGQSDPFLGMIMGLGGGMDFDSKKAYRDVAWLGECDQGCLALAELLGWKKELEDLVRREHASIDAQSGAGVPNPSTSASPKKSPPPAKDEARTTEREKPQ
Method: as §1, with “The Km value of KTlip obtained from the fluorescent method matched well with that from the traditional HPLC method, underscoring that probe KTlip can serve as a useful tool for detecting enzymatic delipoylation activity.” left out
as §2, with “The enzymatic reaction volume was 50 μL.” left out
The rate constant was calculated by fitting the fluorescence data to the following equation: Fluorescence intensity=1−exp(−kt) Enzymatic Reaction with Lipoylated Peptides.

Sirt2 [2] = molecular target: T6, Sirt2; assay: HPLC delipoylation assay of lipoylated peptides with Sirt2; conditions: Sirt2 + NAD+, 37° C., monitored at 280 nm after 40 min
Method: A total of 11 lipoylated peptides (KAlip-1 to KAlip-11) were synthesised. The peptide sequences were selected from proteins that have been reported as being lipoylated (PDH, KDH, BCKDH, and GCV) and non-lipoylated proteins (e.g., histone). The peptides were synthesized with a standard Fmoc solid phase synthesis approach and characterized by LC-MS. The delipoylation activity was then determined by an HPLC assay. Compared with non-putative peptides, putative lipoylated peptides appeared to be more efficiently hydrolyzed by Sirt2. For example, the delipoylated product of KAlip-1 (derived from histone) after 40 min was determined to be 59%, which is less than that of putative lipoylated substrates such as KAlip-5 and KAlip-6 (derived from PDH).
The lipoylated peptides KAlip-1 to -11 were incubated with sirtuin and cofactor NAD+ at 37° C. in 20 mM HEPES buffer (pH 8.0) containing 150 mM NaCl, 1 mM MgCl2, and 2.7 mM KCl. The reaction volume was set to 50 μL. At each specific reaction time point, the reaction mixtures were quenched by adding 250 μL of methanol. The reactions were vortexed and centrifuged. Supernatant was collected and then analysed by reverse phase HPLC. The new peak generated was collected for ESI-MS or MALDI-TOF-MS analysis directly.

Sirt2 [3] = molecular target: T6, Sirt2; assay: Steady-state kinetic study of lipoylated peptides with Sirt2 (HPLC); conditions: relative to KAlip-1
Method: The delipoylation activity of HDAC8 was further examined using KAlip-5 and KAlip-1. […] A more detailed assessment of the enzymatic delipoylation reaction was performed. Time-dependent experiments and steady-state kinetics studies were conducted of KAlip-1, 5, 8, and 10 with Sirt2 (Table 1).
To determine the values of kcat, and Km, purified Sirt2 with 400 μM NAD+ was incubated with different concentrations of lipoylated peptide (0-120 μM) in 20 mM HEPES buffer (pH 8.0) containing 150 mM NaCl, 1 mM MgCl2, and 2.7 mM KCl at 37° C. for 10 min (KAlip-1 and KAlip-10) or 5 min (KAlip-5 and KAlip-8). The reactions were quenched by adding 250 μL of methanol and then applied for HPLC analysis with a linear gradient of 5% to 85% B (acetonitrile) for 30 min. The generated delipoylated product was quantified based on the peak area monitored at 280 nm. The kcat, and Km, values were calculated by curve-fitting Vinitiai/[E] versus [S]. The experiments were conducted in duplicate.

| Compound | Fluorescence increase (Sirt3) | Fluorescence increase (HDAC8; HDAC8, 37° C., HEPES buffer pH 8.0) | De-lipoylated product (HPLC and MS analysis) (HDAC8; HDAC8 enzymatic reaction conditions) | Fluorescence increase (Sirt5) | Fluorescence increase (Sirt6) | Fluorescence signal (Sirt1) | Fluorescence increase (Sirt2 [1]; Sirt2, 37° C., HEPES buffer pH 8.0) [fold] | First-order rate constant of the reaction (Sirt2 [1]; Sirt2, fluorescence fit) [min⁻¹] | Delipoylation product (HPLC yield of delipoylated product) (Sirt2 [2]) [%] | Catalytic efficiency of Sirt2 compared with nonputative H3K9 lipoyl peptide (KAlip-1) (Sirt2 [3]) |
| --- | --- | --- | --- | --- | --- | --- | --- | --- | --- | --- |
| CC(C)(C)OC(=O)N[C@@H](CCCCNC(=O)CCCCC1CCSS1)C(=O)NCCOCCOc1ccc([N+](=O)[O-])c2nonc12 (stereo partly shown) [KTlip] | did not show a noticeable fluorescence increase | did not show a noticeable fluorescence increase | No de-lipoylated product was observed | did not show a noticeable fluorescence increase | did not show a noticeable fluorescence increase | much lower fluorescence signal | 60 | 0.013 | – | – |
| ALESVK(lip)AASEWW [KAlip-10] | – | – | – | – | – | – | – | – | 71 | slightly higher |
